Test results taken from patent publication US12247029B2, “Heterocyclic compounds as class II phosphoinositide 3-kinase inhibitors” (Forschungsverbund Berlin e.V., priority 2018, dated 2025).

molecular target: PI3KC2α Δ1-298 (Homo sapiens (Human), UniProt O00443); experiment: ADP-Glo kinase assay with purified PI3KC2α Δ1-298; type: biochemical; conditions: not given
Method: Previous studies have shown that PI3KC2α can utilize phosphatidylinositol (PI) or phosphatidylinositol 4-phosphate [PI(4)P] to produce PI(3)P or PI(3,4)P2 respectively but with a preference for PI(3,4)P2 production. To verify that purified PI3KC2α Δ1-298 is active, a radioactive kinase assay was performed with PI as a substrate and different amounts of purified PI3KC2α Δ1-298. The lipid product [PI(3)P] was separated on TLC plates, and the PI(3)P signal was correlated with the amount of PI3KC2α used (FIG. 4A). […] After having confirmed the activity of purified PI3KC2α Δ1-298, an assay suitable for high content screens in multiwell format (ADP-Glo™ assay) was established. The ADP-Glo™ assay has been used for universal detection of ATP hydrolysis. This assay measures ATP hydrolysis occurring during a kinase reaction. For detection, generated ADP is re-converted into ATP with the […] and converted into light by the Ultra-Glo™ Luciferase reagent. The luminescent signal reports kinase activity (FIG. 4B).
The ADP-Glo™ assay was first used to determine the linear correlation range of signal with different amounts of kinase, and then to assess the Kms for ATP and for PI. […] Further optimization of this assay allowed us to carry out medium-to-high throughput screening using low amounts of purified enzyme (at fixed concentrations of: ATP=40 μM, PI=200 μM, PI3KC2α A1−298=10 ng/μl).
Primary screens were performed using the ADP-Glo™ assay in a 384-well format. 37, 224 small molecules were screened for their ability to inhibit kinase activity of PI3KC2α Δ1-298. The concentration of each compound used in the primary screens was 10 μM. Kinase incubations with ATP but without PI were used as negative control samples. This primary screen turned out to be robust with an average z′ factor of 0.57, and therefore judged as successful.
ADP-Glo kinase assay was performed as described by the manufacturer's protocol. Briefly, the kinase assay was performed with a […] of liver PI/ATP/purified PI3KC2α for 20 min in kinase reaction buffer described above. To deplete the remaining ATP from the reaction, 5 μl of […] was added to the kinase reaction mixture and incubated for 40 min. For detection, the generated ADP is re-converted into ATP and converted into light by the Ultra-Glo™ luciferase in kinase detection reagent. The luminescent signal positively correlates with kinase activity. All reactions are performed in Corning® 384 well-white plates.

Sequence of PI3KC2α Δ1-298 (O00443 299-1686): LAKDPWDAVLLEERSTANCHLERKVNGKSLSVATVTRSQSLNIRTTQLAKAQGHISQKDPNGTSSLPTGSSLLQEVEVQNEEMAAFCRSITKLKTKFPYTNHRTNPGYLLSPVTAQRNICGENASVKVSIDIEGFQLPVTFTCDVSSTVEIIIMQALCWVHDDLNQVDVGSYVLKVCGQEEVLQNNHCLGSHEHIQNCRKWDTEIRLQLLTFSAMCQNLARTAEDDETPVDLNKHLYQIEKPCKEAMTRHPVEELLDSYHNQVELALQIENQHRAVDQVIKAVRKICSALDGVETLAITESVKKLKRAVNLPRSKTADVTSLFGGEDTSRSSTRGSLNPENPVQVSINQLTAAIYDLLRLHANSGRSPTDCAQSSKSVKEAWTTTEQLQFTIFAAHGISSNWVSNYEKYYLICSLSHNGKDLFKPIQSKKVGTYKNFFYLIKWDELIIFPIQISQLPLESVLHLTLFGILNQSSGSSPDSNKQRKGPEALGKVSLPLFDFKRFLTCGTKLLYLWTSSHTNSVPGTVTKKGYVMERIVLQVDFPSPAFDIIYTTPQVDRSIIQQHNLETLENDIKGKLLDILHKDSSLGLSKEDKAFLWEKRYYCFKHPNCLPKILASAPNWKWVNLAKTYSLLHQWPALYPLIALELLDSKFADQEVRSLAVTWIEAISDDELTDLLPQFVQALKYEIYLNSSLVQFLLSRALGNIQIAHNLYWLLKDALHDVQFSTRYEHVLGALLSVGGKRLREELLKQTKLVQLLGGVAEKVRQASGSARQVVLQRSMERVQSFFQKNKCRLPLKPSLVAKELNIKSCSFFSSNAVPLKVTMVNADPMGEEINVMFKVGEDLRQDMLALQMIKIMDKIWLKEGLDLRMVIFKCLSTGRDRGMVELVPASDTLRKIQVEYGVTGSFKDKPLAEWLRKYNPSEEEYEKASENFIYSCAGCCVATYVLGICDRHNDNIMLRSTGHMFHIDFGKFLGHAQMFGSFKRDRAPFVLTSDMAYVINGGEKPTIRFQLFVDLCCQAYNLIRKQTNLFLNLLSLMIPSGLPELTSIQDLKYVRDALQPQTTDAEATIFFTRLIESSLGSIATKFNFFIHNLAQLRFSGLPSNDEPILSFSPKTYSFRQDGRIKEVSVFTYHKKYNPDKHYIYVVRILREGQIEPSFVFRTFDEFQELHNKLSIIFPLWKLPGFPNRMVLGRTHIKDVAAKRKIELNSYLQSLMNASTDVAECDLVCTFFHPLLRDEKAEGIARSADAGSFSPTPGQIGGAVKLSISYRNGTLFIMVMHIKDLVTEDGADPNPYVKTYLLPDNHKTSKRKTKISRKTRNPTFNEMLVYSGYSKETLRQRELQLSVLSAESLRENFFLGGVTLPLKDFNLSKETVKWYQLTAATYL

Row | inhibition at 10 µM [%] | SMILES
1 | 31 | O=C(CCc1nc2nccnc2c(=O)n1CCc1ccccc1)Nc1ccccc1 [Example Compound 100, 3-(4-Oxo-3-phenethyl-3,4-dihydropteridin-2-yl)-N-phenylpropanamide]
2 | 28 | O=C(CCc1nc2nccnc2c(=O)n1CCc1ccccc1)NCc1ccccc1 [Example Compound 101, N-Benzyl-3-(4-oxo-3-phenethyl-3,4-dihydropteridin-2-yl)propanamide]
3 | 36 | O=C(CCc1nc2nccnc2c(=O)n1CCc1ccccc1)NCCc1ccccc1 [Example Compound 102, 3-(4-Oxo-3-phenethyl-3,4-dihydropteridin-2-yl)-N-phenethylpropanamide]

same assay, conditions: read-out: IC50 (PI3KC2α; ADP-Glo™ assay)

Row | IC50 [µM] | SMILES
4 | 0.91 | O=c1c2nccnc2nc(SCc2nc3cc(Br)cnc3[nH]2)n1CCc1ccccc1 [Example Compound 74, 2-(((6-Bromo-3H-imidazo[4,5-b]pyridin-2-yl)methyl)thio)-3-phenethylpteridin-4(3H)-one]
5 | 2.6 | COC(=O)c1ccc2[nH]c(CSc3nc4nccnc4c(=O)n3CCc3ccccc3)nc2c1 [Example Compound 75, Methyl 2-(((4-oxo-3-phenethyl-3,4-dihydropteridin-2-yl)thio)methyl)-1H-benzo[d]imidazole-5-carboxylate]
6 | 22 | O=c1c2nccnc2nc(SCc2ncc[nH]2)n1CCc1ccccc1 [Example Compound 76, 2-(((1H-Imidazol-2-yl)methyl)thio)-3-phenethylpteridin-4(3H)-one]
7 | 23 | Cc1nc(CSc2nc3nccnc3c(=O)n2CCc2ccccc2)[nH]c1C [Example Compound 77, 2-(((4,5-Dimethyl-1H-imidazol-2-yl)methyl)thio)-3-phenethylpteridin-4(3H)-one]
8 | 9.5 | CS(=O)(=O)c1ccc(-n2c(SCC(=O)Nc3nccs3)nc3nccnc3c2=O)cc1 [Example Compound 78, 2-((3-(4-(Methylsulfonyl)phenyl)-4-oxo-3,4-dihydropteridin-2-yl)thio)-N-(thiazol-2-yl)acetamide]
9 | 0.92 | CS(=O)(=O)c1ccc(-n2c(SCc3nc4ccccc4[nH]3)nc3nccnc3c2=O)cc1 [Example Compound 79, 2-(((1H-Benzo[d]imidazol-2-yl)methyl)thio)-3-(4-(methylsulfonyl)phenyl)pteridin-4(3H)-one]
10 | 0.28 | Cc1nnc(NS(=O)(=O)c2ccc(-n3c(SCC(=O)Nc4nccs4)nc4nccnc4c3=O)cc2)s1 [Example Compound 80, 2-((3-(4-(N-(5-Methyl-1,3,4-thiadiazol-2-yl)sulfamoyl)phenyl)-4-oxo-3,4-dihydropteridin-2-yl)thio)-N-(thiazol-2-yl)acetamide]
11 | 0.62 | CNC(=O)c1ccc(-n2c(SCC(=O)Nc3nccs3)nc3nccnc3c2=O)cc1 [Example Compound 81, 4 N-Methyl-4-(4-oxo-2-((2-oxo-2-(thiazol-2-ylamino)ethyl)thio)pteridin-3(4H)-yl)benzamide]
12 | 0.61 | CNC(=O)c1ccc(-n2c(SCc3nc4ccccc4[nH]3)nc3nccnc3c2=O)cc1 [Example Compound 82, 4-(2-(((1H-Benzo[d]imidazol-2-yl)methyl)thio)-4-oxopteridin-3(4H)-yl)-N-methylbenzamide]
13 | 1.2 | N#Cc1ccc(-n2c(SCC(=O)Nc3nccs3)nc3nccnc3c2=O)cc1 [Example Compound 85, 2-((3-(4-Cyanophenyl)-4-oxo-3,4-dihydropteridin-2-yl)-thio)-N-(thiazol-2-yl)acetamide]
14 | 1.1 | N#Cc1ccc(-n2c(SCc3nc4ccccc4[nH]3)nc3nccnc3c2=O)cc1 [Example Compound 86, 4-(2-(((1H-Benzo[d]imidazol-2-yl)methyl)thio)-4-oxopteridin-3(4H)-yl)benzonitrile]
15 | 0.17 | O=C(CSc1nc2nccnc2c(=O)n1C1Cc2ccccc2C1)Nc1nccs1 [Example Compound 87, 2-((3-(2,3-Dihydro-1H-inden-2-yl)-4-oxo-3,4-dihydropteridin-2-yl)thio)-N-(thiazol-2-yl)acetamide]
16 | 0.13 | O=c1c2nccnc2nc(SCc2nc3ccccc3[nH]2)n1C1Cc2ccccc2C1 [Example Compound 88, 2-(((1H-Benzo[d]imidazol-2-yl)methyl)thio)-3-(2,3-dihydro-1H-inden-2-yl)pteridin-4(3H)-one]
17 | 1.7 | C[C@@H](c1ccccc1)n1c(SCC(=O)Nc2nccs2)nc2nccnc2c1=O [Example Compound 89, (S)-2-((4-Oxo-3-(1-phenylethyl)-3,4-dihydropteridin-2-yl)-thio)-N-(thiazol-2-yl) acetamide]
18 | 16 | C[C@@H](c1ccccc1)n1c(SCc2nc3ccccc3[nH]2)nc2nccnc2c1=O [Example Compound 90, (S)-2-(((1H-Benzo[d]imidazol-2-yl)methyl)thio)-3-(1-phenylethyl)pteridin-4(3H)-one]
19 | 0.37 | COC(=O)[C@H]1C[C@H](n2c(SCC(=O)Nc3nccs3)nc3nccnc3c2=O)C1 [Example Compound 91, trans-Methyl 3-(4-oxo-2-((2-oxo-2-(thiazol-2-ylamino)ethyl)thio)pteridin-3(4H)-yl)cyclobutane-1-carboxylate]
20 | 0.32 | COC(=O)[C@H]1C[C@H](n2c(SCc3nc4ccccc4[nH]3)nc3nccnc3c2=O)C1 [Example Compound 92, trans-Methyl-3-(2-(((1H-benzo[d]imidazol-2-yl)methyl)thio)-4-oxo-pteridin-3(4H)-yl)cyclobutane-1-carboxylate]
21 | 3.6 | CC(C)(C)OC(=O)N1CCC(n2c(SCC(=O)Nc3nccs3)nc3nccnc3c2=O)CC1 [Example Compound 93, tert-Butyl 4-(4-oxo-2-((2-oxo-2-(thiazol-2-ylamino)ethyl)thio)pteridin-3(4H)-yl)piperidine-1-carboxylate]
22 | 1.2 | CC(C)(C)OC(=O)N1CCC(n2c(SCc3nc4ccccc4[nH]3)nc3nccnc3c2=O)CC1 [Example Compound 94, tert-Butyl 4-(2-(((1H-benzo[d]imidazol-2-yl)methyl)thio)4-oxopteridin-3(4H)-yl)piperidine-1-carboxylate]
23 | 0.21 | O=C(CSc1nc2nccnc2c(=O)n1CCc1ccc(O)cc1)Nc1nccs1 [Example Compound 95, 2-((3-(4-Hydroxyphenethyl)-4-oxo-3,4-dihydropteridin-2-yl)thio)-N-(thiazol-2-yl)acetamide]
24 | 0.1 | O=c1c2nccnc2nc(SCc2nc3ccccc3[nH]2)n1CCc1ccc(O)cc1 [Example Compound 96, 2-(((1H-Benzo[d]imidazol-2-yl)methyl)thio)-3-(4-hydroxyphenethyl)pteridin-4(3H)-one]
